Assay results: EP2952497A1, “Method for neutralizing detrimental effects of thiolbearing compounds on metal catalysts” (Universität Basel, priority 2014, dated 2015)

What was measured:
[1] = screening of GSH neutralizing agents in GSH-spiked solutions before imine reduction; format: biochemical; settings: for compatibility with the catalytic systems: solutions with or without Sav isoform, with or without 2.5 mmol/l GSH; for efficacy as GSH neutralizing agent: solutions spiked with 2.5 mmol/l GSH, incubated with agent before adding Ir-catalyst, reaction 2 days
Procedure: Michael acceptors and oxidizing agents known to react with GSH were selected to yield the corresponding thioether and disulfide, respectively. The following Michael acceptors were tested: maleinimide (Malln), 2-bromo-1-phenylethanone (BrPheOne), phenyl-vinylsulfone (PheViSul) and 3-Phenyl-2-propynenitrile (PhePropNit). The following oxidizing agents were selected: oxone (Ox), 1,4-benzoquinone (BQ), K3[Fe(CN)6] Fe^3+, and diamide (DiAm) (figure 2). For this purpose, solutions either with or without a Sav isoform were spiked with 2.5 mmol/l GSH and incubated overnight in presence of different concentrations of a particular GSH neutralizing agent before adding the Ir-catalyst. The reactions were initiated by addition of the imine substrate and run for 2 days (see Table 2).
An equimolar amount has no benefit on the reaction whereas four equivalents led to a decrease in conversion and enantioselectivity in the case of the S112K mutant. • 4) Despite the fact that H2O2 is commonly used to oxidize GSH, Ox was favoured for this purpose. […] Increasing the concentration of the GSH neutralizing agents leads to less consistent results. The outcome of the reaction depends on the Sav-mutant (if any) is used. […] A similar behaviour is observed with BrPheOne when no Sav or the S112K mutant was present.

[2] = tested on: living cells, including E. coli; settings: cited from earlier work
[3] = tested on: [Cp*Ir(biot-p-L)Cl] c S112A Sav (streptavidin variant S112A, SEQ ID NO 1); settings: 2.5 mM GSH; substrate 10 mM; purified Sav; RT, 48 h
Procedure: (§1) Initial experiments were performed using 50 µmol/l [Cp*Ir(biot-p-L)Cl], 100 µmol/l biotin binding sites (i.e. 25 µmol/l tetrameric Sav), 1 M HCO2Na in MOPS buffer ([…], pH 7) (see scheme 1). For comparison purposes, the imine reduction was performed with [Cp*Ir(biot-p-L)Cl]; [Cp*Ir(biot-p-L)Cl] c S112A Sav and [Cp*Ir(biot-p-L)Cl] c S112K Sav, cf. scheme 1.
(§2) Without wishing to be bound by theory, the inventors speculate that oxidizing GSH or derivatizing its thiol function could -at least partially- prevent inhibition of the hybrid catalysts.

[4] = tested on: [Cp*Ir(biot-p-L)Cl] c S112K Sav (streptavidin variant S112K, SEQ ID NO 2); settings: 2.5 mM GSH; substrate 10 mM; purified Sav; RT, 48 h
Procedure: as §1, §2

[5] = tested on: [Cp*Ir(biot-p-L)Cl] c S112A Sav ATHase (streptavidin variant S112A, SEQ ID NO 1); settings: substrate not given, taken as the imine (salsolidine precursor); cited from earlier work
[6] = tested on: [Cp*Ir(biot-p-L)Cl] c S112K Sav ATHase (streptavidin variant S112K, SEQ ID NO 2); settings: substrate not given, taken as the imine (salsolidine precursor); cited from earlier work

Compound | compatibility with the catalytic systems [1] | efficacy as GSH neutralizing agent [1] | also measured
O=C1C=CC(=O)C=C1 [BQ, 1,4-benzoquinone] | not compatible with any of the three catalytic systems |  | 
O=C(CBr)c1ccccc1 [BrPheOne, 2-bromo-1-phenylethanone] |  | most effective GSH neutralizing agents | 
CN(C)C(=O)/N=N/C(=O)N(C)C [DiAm, diamide] | fully compatible with the artificial metalloenzymes | most effective GSH neutralizing agents | compatibility with living cells [2]: causing neither lysis nor death
N[C@@H](CCC(=O)N[C@@H](CS)C(=O)NCC(=O)O)C(=O)O [GSH, glutathione] |  |  | inhibition of reduction of the salsolidine precursor [3]: no activity; inhibition of reduction of the salsolidine precursor [4]: no activity
O=C1C=CC(=O)N1 [Malln, maleinimide] | limited compatibility |  | 
N#CC#Cc1ccccc1 [PhePropNit, 3-Phenyl-2-propynenitrile] |  | most effective when applied at a ratio PhePropNit/GSH 2:1 | 
C=CS(=O)(=O)c1ccccc1 [PheViSul, phenyl-vinylsulfone] | does not affect the free Ir-complex | most effective GSH neutralizing agents | 
COc1cc2c(cc1OC)C(C)=NCC2 [salsolidine precursor, 1-methyl-6,7-dimethoxy-3,4-dihydroisoquinoline] |  |  | kcat [5]: 0.19 s⁻¹; kcat [6]: 0.0433 s⁻¹
oxone |  | efficacy is most pronounced with four equivalents vs. GSH | 
